Patent US20050031537A1, “Multifunctional COX-2 inhibitors” (priority 2002, published 2005)

Key:
PPRE luciferase = PPRE luciferase activation, transient transfection reporter assay (test (a)); type: cell-based, human; conditions: positive in 184B5, 184B5/HER, HCA7, HCT116, SKBR3 and BT474 cells; 24 h treatment
Text: We turn now to criterion (a), that is activation of PPRE luciferase by at least 100%. PPRE-luciferase refers to a DNA construct containing the peroxisome proliferator activated receptor (PPAR) binding element joined to luciferase. Cells are transfected with PPRE-luciferase DNA. Ligands of PPAR induce luciferase activity. The ability of a test compound to stimulate PPRE-luciferase signifies that the test compound activates PPAR-mediated gene transcription. PPRE means peroxisome proliferator response element and the method by which PPRE-luciferase is constructed is described in Schoonjans, K., et al, J. Biol. Chem. 270, No. 33, 19269-19276 (Aug. 18, 1995). Use of PPRE-luciferase in a transient transfection to measure increase in promoter activity is disclosed in Subbaramaiah, K. et al, J. Biol. Chem. 270, No. 15, 12440-12448 (Apr. 13, […]).
For each well, 1.8 μg of PPRE3-tk-luciferase construct plasmid DNA (described in Forman, B. M., et al, Cell 83, 803 (1995)) plus 0.2 μg of pSV-β-galactosidase were introduced into cells using 8 μg of LipofectAMINE as per the manufacturer's instructions (Invitrogen, CA). After 7 h of incubation, the medium was replaced with basal medium. After transfection, cells were treated with test compound for 24 h. Reporter activities which include luciferase and β-galactosidase were measured in cellular extract 24 h later. Six wells were used for each of the conditions. Luciferase activity represents data that have been normalized with β-galactosidase.
The luciferase assay was performed as per the BD Pharmingen assay reagents. The Enhanced Luciferase Assay Kit provides a firefly luciferase substrate formulation (Substrates A and B) and cell lysis buffer intended for use in measuring luciferase expressed by transfected cells. Media from cell culture plates was removed and rinsed twice with phosphate buffered saline. Enough 1X cell lysis buffer was added to cover cells and incubated at room temperature for 15-20 min. Cells were dislodged by scraping and transferred to microcentrifuge tubes. […] 20-100 μl cell extract was placed into an assay cuvette. One automatic injector type luminometer is used for assay. Manually 100 μl of Substrate A was added to the assay cuvette and automatically 100 μl of Substrate B was injected. Measurements were performed using a luminometer, for a measurement time of 10 seconds.
The β-galactosidase assay was performed as follows:
50 μl of cell lysate from above was incubated with 50 μl of o-nitrophenyl-β-D-galactoside (ONPG; 4 mg/mL) in Z buffer, (Na2HPO4.7H2O (0.06M), NaH2PO4.H2O (0.04M), 1M KCl (0.01M), 1M MgSO4 (0.001M), β-mercaptoethanol (BME) (0.05M) pH 7.0). The reaction was stopped after sufficient yellow color has developed. The yellow color developed is measured at A420 […].

[1] = system: HPV16 oncoproteins E6 and E7; assay: Western and Northern blotting for HPV16 oncoproteins E6 and E7 (test (d)); type: cell-based, human papillomavirus; conditions: positive in CaSki and SiHa cells
Description: We turn now to the criterion (d), that is at least 50% downregulation of expression of HPV16 oncoproteins E6 and E7.
Protein E6 and E7 which are expressed by HPV16 are believed to play a major role in carcinogenesis.
Western blotting and Northern blotting techniques were used to evaluate the expression of HPV E6 and E7 proteins. The cell lines used for the study were CaSKi and SiHa. The cells were treated with the test compound and cell lysate was obtained as described above and subjected to Western blotting analysis. The Western blotting analysis was performed as described above except anti-HPV 16 E7 antibody was used to probe the blot. The antibody was obtained from Santa Cruz Biotechnology, Inc. CA. For Northern blotting, total cellular RNA was isolated from cell monolayers using an RNA isolation kit from QIAGEN Inc. after treatment with the test compound. 10 μg of total cellular RNA per lane were electrophoresed in a formaldehyde-containing 1.2% agarose gel and transferred to nylon-supported membranes. After baking, membranes were prehybridized overnight in a solution containing 50% formamide, 5×sodium chloride-sodium phosphate-EDTA buffer (SSPE), 5×Denhardt's solution, 0.1% SDS and 100 μg/ml single-stranded salmon sperm DNA and then hybridized for 12 h at 42° C. with radiolabeled cDNA probes for human HPV16 E6 or E7 cDNAs and 18S rRNA. E6 and E7 (as described in Woodworth, C. D., Cancer Res. 16, 4397-4402 (2000)) and 18S rRNA probes were labeled with [^32P]-CTP by random priming. After hybridization, membranes were washed twice for 20 min at room temperature in 2×SSPE-0.1% SDS, twice for 20 min in the same solution at 55° C., and twice for 20 min in 0.1×SSPE-0.1% SDS at 55° C. Washed membranes were then subjected to autoradiography.

PTEN = assay: Western and Northern blotting for expression of PTEN (test (e)); type: cell-based, human; conditions: positive in 184B5, 184B5/HER, HCA7, HCT116, SKBR3 and BT474 cells
Description: We turn now to criterion (e), i.e., at least 50% increase in expression of PTEN.
PTEN is a tumor suppressor that inhibits cell proliferation and induces programmed cell death. PTEN (also know as MMAC-1 or TEP-1) is described in Yamada, K. M., et al, Journal of Cell Science 114, 2375-2382, the whole of which is incorporated herein by reference.
Western blotting and Northern blotting techniques were used to evaluate the expression of PTEN. The expression of PTEN was evaluated in HCA7, HCT116, SKBR3, 184B5/HER, 184B5 and BT474 cells. 5×10^6cells were used to treat either vehicle alone or the test compound. The Western blotting analysis was performed as described above except anti-PTEN antibody was used to probe the blot. The antibody was obtained from Santa Cruz Biotechnology, Inc. CA. Northern blotting for PTEN was performed as described above and cDNA for PTEN as described in Tamura, M., et al, Science 5; 280 (5369):1614-1617 (1998), was used as a probe.

[2] = system: tcf/lef/β-catenin-mediated promoter activation; assay: TOPflash/FOPflash reporter assay for tcf/lef/β-catenin-mediated promoter activation (test (f)); type: cell-based, human; conditions: positive in 184B5, 184B5/HER, HCA7, HCT116, SKBR3 and BT474 cells; 24 h
Text: Tcf/lef/β-catenin is a transcription factor complex that has been implicated in the regulation of genes involved in carcinogenesis. Increased tcf/lef/β-catenin-mediated gene expression has been linked to pathogenesis of colon cancer. Tcf/lef/β-catenin is described in Barker, N., et al, Adv. Cancer Res. 77, 1-24 (2000), the whole of which is incorporated herein by reference.
Cells (cell lines were 184B5, 184B5/HER, HCA7, HCT116, SKBR3 and BT474) were split into 6 well dishes and the next day were transiently transfected using 8 μg of LipofectAMlNE as per the manufacturer's instructions (Invitrogen, CA). 1.8 μg/dish of the wildtype Tcf/Lef reporter plasmid TOP flash or the mutant plasmid FOP flash was transfected into the cells and 0.2 μg of pSV-β-galactosidase. FOPflash differs from TOPflash by the mutation of its Tcf binding sites and serves to differentiate Tef/-catenin-mediated signaling from background (Upstate Biotechnology, Inc.). Cells were incubated overnight and were treated for 24 hours with either vehicle or test compound. Luciferase activity in the extracts was measured as described above and was corrected for background by subtraction of FOP-FLASH values from corresponding TOP-FLASH values.

HER-2/neu = assay: Western blotting for expression of HER-2/neu (test (b)); type: cell-based, human; conditions: positive in 184B5/HER, BT474 and SKBR3 cells; 24 h; Western blot
Text: We turn now to the criterion (b), that is at least 50% decrease in level of or 50% downregulation of expression of Class I family of receptors tyrosine kinase. The Class I family of receptors tyrosine kinase is described in Reese, M. D., et al Stem Cells 15, pages 1-8 (1997), the whole of which in incorporated herein by reference. Members of the family include HER-2/neu, HER-3, HER-4 and epidermal growth factor receptor (EGFR) and are single-chain membrane spanning proteins which have significant homology to one another including about 80% amino acid identity in the tyrosine kinase domain.
HER-2/neu (erbB-2) gene product is a 185-kDA transmembrane receptor tyrosine kinase that is described in some detail in said Reese et al publication and overexpression thereof has been associated with tumor growth in several kinds of cancer.
To evaluate the expression of Class I family of receptors tyrosine kinase (EGFR, HER-2/neu), Western blotting can be performed. Antibodies for EGFR and HER-2/neu can be obtained from Santa Cruz Biotechnology, Inc.
Expression of EGFR (performed in 184B5, 184B5/HER, 1483, LNCaP, HeLa and CaSki cells)and HER-2/neu (performed in 184B5/HER, SKBR3 and BT474 cells) was assessed in cells after treatment with test compound for 24 hours. 5×10^6 cells were used for the treatment. Western blotting technique was used to assess the expression levels in cells treated with the test compound compared to vehicle alone. Western blotting was carried out as follows:
Cell lysates were prepared by treating cells with lysis buffer (150 mM NaCl, 100 mM Tris (pH 8.0), 1% Tween 20, 50 mM diethyldithiocarbamate, 1 mM EDTA, 1 mM phenylmethylsulfonyl fluoride, 10 μg/ml aprotinin, 10 μg/ml trypsin inhibitor and 10 μg/ml leupeptin). Lysates were sonicated for 20 s on ice and centrifuged at 10,000×g for 10 min to sediment the particulate material. The protein concentration of the supernatant was measured by the method of Lowry, O. H., et al., J. Biol. Chem. 193, 265-275 (195 1). SDS/PAGE was performed under reducing conditions on 10% polyacrylamide gels as described by Laemmli, U.K., Nature (Lond.) 227, 680-685 (1970). The resolved proteins were transferred onto nitrocellulose sheets as detailed by Towbin, H. et al., Proc. Natl. Acad. Sci. USA 76, 4350-4354 (1979). The nitrocellulose membrane was then incubated with anti-EGFR antiserum or anti-HER-2/neu antiserum. Secondary antibody to IgG conjugated to horseradish peroxidase was used. The various antisera were purchased from Santa Cruz Biotechnology, Inc., CA. The blots were probed with the Renaissance Western blot detection system according to the manufacturer's instructions (PerkinElmer Life Sciences, Boston, Mass.).

cyclin D1 = assay: Western blotting for expression of cyclin D1 (test (c)); type: cell-based, human; conditions: positive in 184B5, 184B5/HER cells; 24 h; Western blot
Description: Cyclin D1 is a protein that is important in regulating cell proliferation and is described in Ortega, S., et al, Biochimica et Biophysica Acta 1602, 73-87, (2002), the whole of which is incorporated by reference. […] Effects on expression of cyclin D1 was investigated in 184B5, 184B5/HER, HCA7, HCT116, SKBR3 and BT474 cells. The expression was assessed in cells after treatment with test compound or vehicle using 5×10^4 cells for 24 hours. Western blotting technique was used as follows to assess the expression levels of cyclin D1 in cells treated with the test compound and compared to levels in cells treated with vehicle alone. Cell lysates were prepared by treating cells with lysis buffer as described above. […] The resolved proteins were transferred onto nitrocellulose sheets. The nitrocellulose membrane was then incubated with anti-cyclin D1 antiserum. Secondary antibody to IgG conjugated to horseradish peroxidase was used. The various antisera were purchased from Santa Cruz Biotechnology, Inc., CA. The blots were probed with the Renaissance Western blot detection system according to the manufacturer's instructions (PerkinElmer Life Sciences, Boston, Mass.).

1-(p-chlorobenzoyl)-5-methoxy-2-methyl-1H-indole-3-octylacetamide [Indomethacin Analog 6]
Test (a) activation of PPRE luciferase by at least 100% (PPRE luciferase): + (A plus sign in the table indicates a positive result, that is meeting the test for each cell line as indicated above as providing a positive result) | Test (d) at least 50% downregulation of expression of HPV16 oncoproteins E6 and E7 [1]: + (A plus sign in the table indicates a positive result, that is meeting the test for each cell line as indicated above as providing a positive result)

COc1ccc2c(c1)c(CC(=O)Nc1cccnc1)c(C)n2C(=O)c1ccc(Cl)cc1 [Indomethacin Analog 4, N-(3-pyridyl)-indomethacin amide]
Test (a) activation of PPRE luciferase by at least 100% (PPRE luciferase): + (A plus sign in the table indicates a positive result, that is meeting the test for each cell line as indicated above as providing a positive result) | Test (d) at least 50% downregulation of expression of HPV16 oncoproteins E6 and E7 [1]: + (A plus sign in the table indicates a positive result, that is meeting the test for each cell line as indicated above as providing a positive result) | Test (e) at least 50% increase in expression of PTEN (PTEN): + (A plus sign in the table indicates a positive result, that is meeting the test for each cell line as indicated above as providing a positive result) | Test (f) at least 50% inhibition of tcf/lef/β-catenin-mediated promoter activation [2]: + (A plus sign in the table indicates a positive result, that is meeting the test for each cell line as indicated above as providing a positive result)

COc1ccc2c(c1)c(CC(=O)NCCc1ccccc1)c(C)n2C(=O)c1ccc(Cl)cc1 [Indomethacin Analog 2, N-(2-phenylethyl)-indomethacin amide]
Test (a) activation of PPRE luciferase by at least 100% (PPRE luciferase): + (A plus sign in the table indicates a positive result, that is meeting the test for each cell line as indicated above as providing a positive result) | Test (b) HER-2/neu: at least 50% decrease in level of or 50% downregulation of expression (HER-2/neu): + (A plus sign in the table indicates a positive result, that is meeting the test for each cell line as indicated above as providing a positive result) | Test (c) at least 50% downregulation of expression of cyclin D1 (cyclin D1): + (A plus sign in the table indicates a positive result, that is meeting the test for each cell line as indicated above as providing a positive result) | Test (d) at least 50% downregulation of expression of HPV16 oncoproteins E6 and E7 [1]: + (A plus sign in the table indicates a positive result, that is meeting the test for each cell line as indicated above as providing a positive result)
